Laboratory results published in patent US5128465A, “Process for the preparation of cephem derivatives and intermediates therefor” (Eisai Co., Ltd., priority 1988, dated 1992).
In brackets after ≈: the same amount, converted by molar mass.

What was measured:
Assay in all cases: Antibacterial activities, MIC
Format in all cases: cell-based
[1] = test system: Staphylococcus aureus 209-P
Escherichia coli NIHJ = test system: Escherichia coli NIHJ
[2] = test system: Klebsiella pneumoniae EK-6; details: EK6
[3] = test system: Serratia marcescens ES-75; details: ES75
Morganella morgani EP-14 = details: EP14
[4] = test system: Pseudomonas aeruginosa EP-01; details: EP01

Structure (SMILES)	MIC [1]	MIC (Escherichia coli NIHJ)	MIC [2]	MIC [3]	MIC (Morganella morgani EP-14)	MIC [4]
C[N+](C)(C/C=C/C1=C(C(=O)[O-])N2C(=O)[C@@H](NC(=O)/C(=N\OCF)c3nsc(N)n3)[C@H]2SC1)[C@H](CO)C(N)=O [Example 10, 7β-[2-(5-Amino-1,2,4-Thiadiazol-3-yl)-(Z)-2-fluoromethoxyiminoacetamido]-3-[(E)-3-[((R)-1-Carbamoyl-2-Hydroxyethyl)Dimethylammonio]-1-propenyl]-3-Cephem-4-Carboxylate]	0.2 mg/L (≈ 0.349 µM)	≤ 0.025 mg/L	≤ 0.025 mg/L	≤ 0.025 mg/L	≤ 0.025 mg/L	0.8 mg/L (≈ 1.4 µM)
CC[N+](C)(C/C=C/C1=C(C(=O)[O-])N2C(=O)[C@@H](NC(=O)/C(=N\OCF)c3nsc(N)n3)[C@H]2SC1)CC(N)=O (stereo partly drawn) [Example 14, 7β-[2-(5-Amino-1,2,4-Thiadiazol-3-yl)-(Z)-2-Fluoromethoxyiminoacetamido]-3-[(E)-3-(Carbamoylmethylethylmethylammonio)-1-Propenyl]-3-Cephem-4-Carboxylate]	0.2 mg/L (≈ 0.359 µM)	≤ 0.025 mg/L	≤ 0.025 mg/L	0.1 mg/L (≈ 0.18 µM)	≤ 0.025 mg/L	0.8 mg/L (≈ 1.44 µM)
C[C@H](C(N)=O)[N+](C)(C)C/C=C/C1=C(C(=O)[O-])N2C(=O)[C@@H](NC(=O)/C(=N\OCF)c3nsc(N)n3)[C@H]2SC1 [Example 18, 7β-[2-(5-Amino-1,2,4-Thiadiazol-3-yl)-(Z)-2-Fluoromethyoxyiminoacetamido]-3-[(E)-3-[((R)-1Carbamoylethyl)dimethylammonio]-1-propenyl]-3-Cephem-4-Carboxylate]	0.2 mg/L (≈ 0.359 µM)	≤ 0.025 mg/L	≤ 0.025 mg/L	0.1 mg/L (≈ 0.18 µM)	≤ 0.025 mg/L	1.56 mg/L (≈ 2.8 µM)
